In the NIST ThermoML archive (doi:10.1016/j.fluid.2017.03.008):

Assays:
[1] = refractive index (Na D-line) (dimensionless); xn = mol fraction of the nth substance listed; conditions: 101.3 kPa, Liquid, Standard Abbe refractometry
[2] = xn = mol fraction of the nth substance listed; conditions: for surface tension liquid-gas: Ring tensiometer; for viscosity / mass density: 101.3 kPa, Liquid; for viscosity: Capillary tube (Ostwald / Ubbelohde) method; for mass density: Vibrating tube method

CCCC[N+](CCCC)(CCCC)CCCC.[Br-] [tetrabutylammonium bromide] + NCCO
Conditions	mass density, [2] [kg/m3]	refractive index, [1]	surface tension liquid-gas, [2] [mN/m]	viscosity, [2] [mPa·s]
298.15 K, x1 = 0.14	1048.1	1.48383	36.1	22
298.15 K, x1 = 0.16	1056.6	1.4877	36	52.9
298.15 K, x1 = 0.2	1060.9	1.4881	35.8	80.2
298.15 K, x1 = 0.25	1061.6	1.49229	35.7	106.8
308.15 K, x1 = 0.14	1038.7	1.48033	35.7	15.5
308.15 K, x1 = 0.16	1048	1.48423	35.6	31
308.15 K, x1 = 0.2	1053.6	1.48464	35.4	54.7
308.15 K, x1 = 0.25	1054.5	1.48876	35.3	77
318.15 K, x1 = 0.14	1028.9	1.47704	35.4	12
318.15 K, x1 = 0.16	1041.5	1.48115	35.2	21.1
318.15 K, x1 = 0.2	1046.4	1.48169	35	38.2
318.15 K, x1 = 0.25	1047.3	1.48547	34.8	53.57
328.15 K, x1 = 0.14	1018.5	1.47349	35.1	9
328.15 K, x1 = 0.16	1034.1	1.47778	34.9	14.4
328.15 K, x1 = 0.2	1039.2	1.47851	34.6	20.1
328.15 K, x1 = 0.25	1040.2	1.48242	34.5	35.29
338.15 K, x1 = 0.14	1010.2	1.46989	34.7	6.8
338.15 K, x1 = 0.16	1026.7	1.47385	34.6	9
338.15 K, x1 = 0.2	1032	1.47541	34.3	13.4
338.15 K, x1 = 0.25	1033.1	1.47966	34	18.6
348.15 K, x1 = 0.14	1001.1	1.46595	34.4	5.7
348.15 K, x1 = 0.16	1019.3	1.46989	34.2	7.5
348.15 K, x1 = 0.2	1024.7	1.47164	33.9	10.5
348.15 K, x1 = 0.25	1026.1	1.47651	33.6	13.8
358.15 K, x1 = 0.14	992.1	1.46234	34.1	5.2
358.15 K, x1 = 0.16	1012	1.46632	33.9	5.2
358.15 K, x1 = 0.2	1017.4	1.46897	33.5	8
358.15 K, x1 = 0.25	1019	1.47303	33.2	10.2
